Source: the supplement of paper PMC10307832

How the values were obtained:
Experiment in all cases: relative viability (nuclei count vs DMSO), 5 days (fraction); higher = more cells survive
[1] = compound: O=c1[nH]cc(F)c(=O)[nH]1 [5-Fluorouracil] + Cc1nc(Nc2ncc(C(=O)Nc3c(C)cccc3Cl)s2)cc(N2CCN(CCO)CC2)n1 [Dasatinib] (partner 0.075 µM)
In short: (§1)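 Lung cancer cell lines, seeded in 1536-well plates, were treated the following day by pin tool with a single drug or with five library-drug doses (not always all listed) in √10 steps on top of a fixed anchor-drug dose. Cells were fixed and nuclei stained in one step after 5 days, and nuclei were counted. Relative viability is the nuclei count for treated wells divided by that for vehicle wells, reported as medians of duplicate plates.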

Sulindac + Bortezomib = compound: CC1=C(CC(=O)O)c2cc(F)ccc2/C1=C\c1ccc([S+](C)[O-])cc1 [Sulindac] + CC(C)C[C@H](NC(=O)[C@H](Cc1ccccc1)NC(=O)c1cnccn1)B(O)O [Bortezomib] (partner 0.002 µM)
In short: as §1

Sulindac + Linsitinib = compound: CC1=C(CC(=O)O)c2cc(F)ccc2/C1=C\c1ccc([S+](C)[O-])cc1 [Sulindac] + C[C@]1(O)C[C@@H](c2nc(-c3ccc4ccc(-c5ccccc5)nc4c3)c3c(N)nccn32)C1 [Linsitinib] (partner 1 µM)
In short: as §1

Sulindac + Phenformin = compound: CC1=C(CC(=O)O)c2cc(F)ccc2/C1=C\c1ccc([S+](C)[O-])cc1 [Sulindac] + N=C(N)NC(=N)NCCc1ccccc1 [Phenformin] (partner 250 µM)
In short: as §1

LCLC-97TM1
relative viability ([1]; first compound 0.02 µM): 0.79 | relative viability ([1]; first compound 0.2 µM): 0.978 | relative viability ([1]; first compound 0.6325 µM): 0.837 | relative viability ([1]; first compound 2 µM): 0.745 | relative viability (Sulindac + Bortezomib; first compound 0.08 µM): 0.861 | relative viability (Sulindac + Bortezomib; first compound 0.253 µM): 0.946 | relative viability (Sulindac + Bortezomib; first compound 2.53 µM): 0.788 | relative viability (Sulindac + Bortezomib; first compound 8 µM): 0.806 | relative viability (Sulindac + Linsitinib; first compound 0.08 µM): 0.187 | relative viability (Sulindac + Linsitinib; first compound 0.253 µM): 0.167 | relative viability (Sulindac + Linsitinib; first compound 0.8 µM): 0.157 | relative viability (Sulindac + Linsitinib; first compound 8 µM): 0.209 | relative viability (Sulindac + Phenformin; first compound 0.08 µM): 0.497 | relative viability (Sulindac + Phenformin; first compound 0.253 µM): 0.518 | relative viability (Sulindac + Phenformin; first compound 0.8 µM): 0.447 | relative viability (Sulindac + Phenformin; first compound 2.53 µM): 0.441 | relative viability (Sulindac + Phenformin; first compound 8 µM): 0.486

BEN
relative viability ([1]; first compound 0.02 µM): 0.318 | relative viability ([1]; first compound 0.2 µM): 0.318 | relative viability ([1]; first compound 0.6325 µM): 0.284 | relative viability ([1]; first compound 2 µM): 0.277 | relative viability (Sulindac + Bortezomib; first compound 0.08 µM): 0.829 | relative viability (Sulindac + Bortezomib; first compound 0.253 µM): 0.889 | relative viability (Sulindac + Bortezomib; first compound 0.8 µM): 0.714 | relative viability (Sulindac + Bortezomib; first compound 2.53 µM): 0.748 | relative viability (Sulindac + Bortezomib; first compound 8 µM): 0.947 | relative viability (Sulindac + Linsitinib; first compound 0.08 µM): 1.02 | relative viability (Sulindac + Linsitinib; first compound 0.253 µM): 0.892 | relative viability (Sulindac + Linsitinib; first compound 0.8 µM): 0.571 | relative viability (Sulindac + Linsitinib; first compound 2.53 µM): 0.967 | relative viability (Sulindac + Linsitinib; first compound 8 µM): 1.07 | relative viability (Sulindac + Phenformin; first compound 0.08 µM): 0.284 | relative viability (Sulindac + Phenformin; first compound 0.253 µM): 0.276 | relative viability (Sulindac + Phenformin; first compound 0.8 µM): 0.227 | relative viability (Sulindac + Phenformin; first compound 2.53 µM): 0.218 | relative viability (Sulindac + Phenformin; first compound 8 µM): 0.275

NCI-H2085
relative viability ([1]; first compound 0.02 µM): 0.192 | relative viability ([1]; first compound 0.2 µM): 0.218 | relative viability ([1]; first compound 0.6325 µM): 0.21 | relative viability ([1]; first compound 2 µM): 0.301 | relative viability (Sulindac + Bortezomib; first compound 0.08 µM): 0.976 | relative viability (Sulindac + Bortezomib; first compound 0.253 µM): 1.06 | relative viability (Sulindac + Bortezomib; first compound 0.8 µM): 0.917 | relative viability (Sulindac + Bortezomib; first compound 2.53 µM): 1.12 | relative viability (Sulindac + Bortezomib; first compound 8 µM): 1.11 | relative viability (Sulindac + Linsitinib; first compound 0.08 µM): 0.894 | relative viability (Sulindac + Linsitinib; first compound 0.253 µM): 0.856 | relative viability (Sulindac + Linsitinib; first compound 0.8 µM): 0.876 | relative viability (Sulindac + Linsitinib; first compound 2.53 µM): 0.848 | relative viability (Sulindac + Linsitinib; first compound 8 µM): 0.912 | relative viability (Sulindac + Phenformin; first compound 0.08 µM): 0.767 | relative viability (Sulindac + Phenformin; first compound 0.253 µM): 0.912 | relative viability (Sulindac + Phenformin; first compound 0.8 µM): 0.593 | relative viability (Sulindac + Phenformin; first compound 2.53 µM): 0.739 | relative viability (Sulindac + Phenformin; first compound 8 µM): 0.751

LC-2-ad
relative viability ([1]; first compound 0.02 µM): 0.785 | relative viability ([1]; first compound 0.2 µM): 0.354 | relative viability ([1]; first compound 0.6325 µM): 0.328 | relative viability ([1]; first compound 2 µM): 0.209 | relative viability (Sulindac + Bortezomib; first compound 0.08 µM): 1.31 | relative viability (Sulindac + Bortezomib; first compound 0.253 µM): 0.992 | relative viability (Sulindac + Bortezomib; first compound 0.8 µM): 0.969 | relative viability (Sulindac + Bortezomib; first compound 2.53 µM): 0.97 | relative viability (Sulindac + Bortezomib; first compound 8 µM): 1.12 | relative viability (Sulindac + Linsitinib; first compound 0.08 µM): 0.938 | relative viability (Sulindac + Linsitinib; first compound 0.253 µM): 0.795 | relative viability (Sulindac + Linsitinib; first compound 0.8 µM): 0.816 | relative viability (Sulindac + Linsitinib; first compound 2.53 µM): 0.881 | relative viability (Sulindac + Linsitinib; first compound 8 µM): 0.933 | relative viability (Sulindac + Phenformin; first compound 0.08 µM): 0.513 | relative viability (Sulindac + Phenformin; first compound 0.253 µM): 0.61 | relative viability (Sulindac + Phenformin; first compound 0.8 µM): 0.427 | relative viability (Sulindac + Phenformin; first compound 2.53 µM): 0.516 | relative viability (Sulindac + Phenformin; first compound 8 µM): 0.697

ABC-1
relative viability ([1]; first compound 0.02 µM): 0.561 | relative viability ([1]; first compound 0.2 µM): 0.662 | relative viability ([1]; first compound 0.6325 µM): 0.576 | relative viability ([1]; first compound 2 µM): 0.558 | relative viability (Sulindac + Bortezomib; first compound 0.08 µM): 0.328 | relative viability (Sulindac + Bortezomib; first compound 0.253 µM): 0.281 | relative viability (Sulindac + Bortezomib; first compound 0.8 µM): 0.279 | relative viability (Sulindac + Bortezomib; first compound 2.53 µM): 0.311 | relative viability (Sulindac + Bortezomib; first compound 8 µM): 0.31 | relative viability (Sulindac + Linsitinib; first compound 0.08 µM): 1.22 | relative viability (Sulindac + Linsitinib; first compound 0.253 µM): 0.806 | relative viability (Sulindac + Linsitinib; first compound 0.8 µM): 0.627 | relative viability (Sulindac + Linsitinib; first compound 2.53 µM): 0.629 | relative viability (Sulindac + Linsitinib; first compound 8 µM): 0.741 | relative viability (Sulindac + Phenformin; first compound 0.08 µM): 0.23 | relative viability (Sulindac + Phenformin; first compound 0.253 µM): 0.214 | relative viability (Sulindac + Phenformin; first compound 0.8 µM): 0.209 | relative viability (Sulindac + Phenformin; first compound 2.53 µM): 0.255 | relative viability (Sulindac + Phenformin; first compound 8 µM): 0.226

NCI-H661
relative viability ([1]; first compound 0.02 µM): 0.962 | relative viability ([1]; first compound 0.2 µM): 1.01 | relative viability ([1]; first compound 0.6325 µM): 0.81 | relative viability ([1]; first compound 2 µM): 0.851 | relative viability (Sulindac + Bortezomib; first compound 0.08 µM): 0.726 | relative viability (Sulindac + Bortezomib; first compound 0.253 µM): 0.769 | relative viability (Sulindac + Bortezomib; first compound 0.8 µM): 0.688 | relative viability (Sulindac + Bortezomib; first compound 2.53 µM): 0.852 | relative viability (Sulindac + Bortezomib; first compound 8 µM): 0.885 | relative viability (Sulindac + Linsitinib; first compound 0.08 µM): 0.585 | relative viability (Sulindac + Linsitinib; first compound 0.253 µM): 0.564 | relative viability (Sulindac + Linsitinib; first compound 0.8 µM): 0.501 | relative viability (Sulindac + Linsitinib; first compound 2.53 µM): 0.637 | relative viability (Sulindac + Linsitinib; first compound 8 µM): 0.711 | relative viability (Sulindac + Phenformin; first compound 0.08 µM): 0.244 | relative viability (Sulindac + Phenformin; first compound 0.253 µM): 0.258 | relative viability (Sulindac + Phenformin; first compound 0.8 µM): 0.28 | relative viability (Sulindac + Phenformin; first compound 2.53 µM): 0.246 | relative viability (Sulindac + Phenformin; first compound 8 µM): 0.277

NCI-H1792
relative viability ([1]; first compound 0.02 µM): 0.929 | relative viability ([1]; first compound 0.2 µM): 0.714 | relative viability ([1]; first compound 0.6325 µM): 0.277 | relative viability ([1]; first compound 2 µM): 0.196 | relative viability (Sulindac + Bortezomib; first compound 0.08 µM): 1.24 | relative viability (Sulindac + Bortezomib; first compound 0.253 µM): 0.995 | relative viability (Sulindac + Bortezomib; first compound 2.53 µM): 0.987 | relative viability (Sulindac + Bortezomib; first compound 8 µM): 1.24 | relative viability (Sulindac + Linsitinib; first compound 0.08 µM): 0.557 | relative viability (Sulindac + Linsitinib; first compound 0.253 µM): 0.561 | relative viability (Sulindac + Linsitinib; first compound 2.53 µM): 0.455 | relative viability (Sulindac + Linsitinib; first compound 8 µM): 0.558 | relative viability (Sulindac + Phenformin; first compound 0.08 µM): 0.243 | relative viability (Sulindac + Phenformin; first compound 0.253 µM): 0.441 | relative viability (Sulindac + Phenformin; first compound 2.53 µM): 0.353 | relative viability (Sulindac + Phenformin; first compound 8 µM): 0.255

EPLC-272H
relative viability ([1]; first compound 0.02 µM): 0.271 | relative viability ([1]; first compound 0.2 µM): 0.304 | relative viability ([1]; first compound 0.6325 µM): 0.234 | relative viability ([1]; first compound 2 µM): 0.129 | relative viability (Sulindac + Bortezomib; first compound 0.08 µM): 1.05 | relative viability (Sulindac + Bortezomib; first compound 0.8 µM): 0.603 | relative viability (Sulindac + Bortezomib; first compound 2.53 µM): 1.12 | relative viability (Sulindac + Bortezomib; first compound 8 µM): 0.813 | relative viability (Sulindac + Linsitinib; first compound 0.08 µM): 1.04 | relative viability (Sulindac + Linsitinib; first compound 0.8 µM): 0.751 | relative viability (Sulindac + Linsitinib; first compound 2.53 µM): 1.17 | relative viability (Sulindac + Linsitinib; first compound 8 µM): 1.15 | relative viability (Sulindac + Phenformin; first compound 0.08 µM): 0.272 | relative viability (Sulindac + Phenformin; first compound 0.253 µM): 0.324 | relative viability (Sulindac + Phenformin; first compound 2.53 µM): 0.307 | relative viability (Sulindac + Phenformin; first compound 8 µM): 0.263

NCI-H1437
relative viability ([1]; first compound 0.02 µM): 0.369 | relative viability ([1]; first compound 0.2 µM): 0.183 | relative viability ([1]; first compound 0.6325 µM): 0.189 | relative viability ([1]; first compound 2 µM): 0.137 | relative viability (Sulindac + Bortezomib; first compound 0.08 µM): 0.553 | relative viability (Sulindac + Bortezomib; first compound 0.253 µM): 0.767 | relative viability (Sulindac + Bortezomib; first compound 0.8 µM): 0.293 | relative viability (Sulindac + Bortezomib; first compound 2.53 µM): 0.418 | relative viability (Sulindac + Bortezomib; first compound 8 µM): 0.688 | relative viability (Sulindac + Linsitinib; first compound 0.08 µM): 1.33 | relative viability (Sulindac + Linsitinib; first compound 0.253 µM): 1.14 | relative viability (Sulindac + Linsitinib; first compound 0.8 µM): 0.628 | relative viability (Sulindac + Linsitinib; first compound 2.53 µM): 1.09 | relative viability (Sulindac + Linsitinib; first compound 8 µM): 1.26 | relative viability (Sulindac + Phenformin; first compound 0.08 µM): 0.251 | relative viability (Sulindac + Phenformin; first compound 0.253 µM): 0.321 | relative viability (Sulindac + Phenformin; first compound 0.8 µM): 0.197 | relative viability (Sulindac + Phenformin; first compound 2.53 µM): 0.301 | relative viability (Sulindac + Phenformin; first compound 8 µM): 0.373
